Experimental data: ChEMBL document CHEMBL3351327, “Synthesis of some novel hydrazone and 2-pyrazoline derivatives: monoamine oxidase inhibitory activities and docking studies” (Bioorg Med Chem Lett, 2014)

Tests used:
[1] = target: T1, Amine oxidase [flavin-containing] A (Homo sapiens, UniProt P21397); experiment: biochemical; type: cell-based
T1 sequence (P21397 whole entry): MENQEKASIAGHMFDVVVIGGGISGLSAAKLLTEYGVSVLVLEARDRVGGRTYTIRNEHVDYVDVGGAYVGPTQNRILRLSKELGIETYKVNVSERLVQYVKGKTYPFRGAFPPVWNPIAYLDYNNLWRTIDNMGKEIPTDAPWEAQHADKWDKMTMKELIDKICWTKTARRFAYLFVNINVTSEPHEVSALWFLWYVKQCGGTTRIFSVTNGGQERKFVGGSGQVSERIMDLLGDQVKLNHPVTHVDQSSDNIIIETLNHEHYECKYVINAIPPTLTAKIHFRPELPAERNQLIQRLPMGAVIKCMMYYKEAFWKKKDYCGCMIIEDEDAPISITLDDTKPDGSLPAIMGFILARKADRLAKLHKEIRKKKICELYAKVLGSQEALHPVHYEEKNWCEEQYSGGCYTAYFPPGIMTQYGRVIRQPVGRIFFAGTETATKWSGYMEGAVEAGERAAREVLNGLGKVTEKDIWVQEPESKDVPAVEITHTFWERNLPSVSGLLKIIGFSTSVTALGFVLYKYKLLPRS
Description: Inhibition of human MAOA expressed in baculovirus-infected BTI insect cells assessed as H2O2 production by resorufin dye based fluorimetric method

[2] = target: T2, Amine oxidase [flavin-containing] B (Homo sapiens, UniProt P27338); experiment: biochemical; type: cell-based
T2 sequence (P27338 whole entry): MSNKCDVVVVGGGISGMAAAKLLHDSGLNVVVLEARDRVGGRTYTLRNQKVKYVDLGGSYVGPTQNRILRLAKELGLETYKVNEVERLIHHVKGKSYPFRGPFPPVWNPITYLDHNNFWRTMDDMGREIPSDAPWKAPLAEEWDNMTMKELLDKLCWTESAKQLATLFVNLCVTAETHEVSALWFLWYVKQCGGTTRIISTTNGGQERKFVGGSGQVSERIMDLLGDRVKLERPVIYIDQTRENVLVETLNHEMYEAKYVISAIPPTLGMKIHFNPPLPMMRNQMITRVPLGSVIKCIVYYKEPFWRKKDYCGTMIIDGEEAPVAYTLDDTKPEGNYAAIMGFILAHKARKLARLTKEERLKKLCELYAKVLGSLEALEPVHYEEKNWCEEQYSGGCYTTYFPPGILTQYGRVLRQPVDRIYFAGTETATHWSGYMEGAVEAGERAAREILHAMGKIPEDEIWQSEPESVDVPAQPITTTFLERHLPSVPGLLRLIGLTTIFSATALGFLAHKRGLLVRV
Description: Inhibition of human MAOB expressed in baculovirus-infected BTI insect cells assessed as H2O2 production by resorufin dye based fluorimetric method

Compound | Ki [1] [µM] | Ki [2] [µM]
COc1ccc(C(=O)/C=C/c2ccc(C)cc2)cc1 | 0.56 | 14.9
Cc1cccc(/C=C/C(=O)c2ccc(Cl)cc2)c1 | 0.16 | 7
Cc1ccc([C@H]2CC(c3cc(Cl)ccc3O)=NN2C(=O)c2ccncc2)cc1 | 0.6 | 5.23
COc1ccc(C(=O)N2N=C(c3cc(Cl)ccc3O)C[C@@H]2c2ccc(C)cc2)cc1 | 4.67 | 
Cc1ccc([C@H]2CC(c3cc(Cl)ccc3O)=NN2C(=O)c2snnc2C)cc1 | 0.24 | 72
Cc1ccc([C@H]2CC(c3cc(Br)ccc3O)=NN2C(=O)c2ccncc2)cc1 | 0.18 | 2
Cc1ccc([C@H]2CC(c3cc(Br)ccc3O)=NN2C(=O)c2ccco2)cc1 | 0.45 | 14
COc1ccc(C(=O)N2N=C(c3cc(Br)ccc3O)C[C@@H]2c2ccc(C)cc2)cc1 | 79.2 | 
COc1ccc(/C=C/C(=O)c2ccc(Cl)cc2)cc1 | 0.24 | 13.9
Cc1ccc(/C=C/C(=O)c2ccc(Cl)cc2)cc1 | 0.24 | 7.7
Cc1ccc(/C=C/C(=O)c2ccc(O)cc2)cc1 | 0.6 | 

The next compounds have a lower Ki [1] than those just listed; values first:

Ki [1] [µM] | Ki [2] [µM] | Compound
0.14 | 7.22 | Cc1ccc(/C=C/C(=O)c2cc(Cl)ccc2O)cc1
0.13 | 4.22 | Cc1ccc(/C=C/C(=O)c2cc(Br)ccc2O)cc1
0.13 | 1640 | Cc1ccc([C@H]2CC(c3cc(Br)ccc3O)=NN2C(=O)c2cccs2)cc1
0.11 | 0.99 | Cc1ccc([C@H]2CC(c3cc(Cl)ccc3O)=NN2C(=O)c2ccco2)cc1
0.1 | 5.55 | COc1ccc(/C=C/C(=O)c2ccc(Br)cc2)cc1
0.091 | 0.7 | COc1ccc(/C=C/C(=N\NC(=O)c2ccco2)c2ccc(Br)cc2)cc1
0.045 | 0.98 | COc1ccc(/C=C/C(=N\NC(=O)c2ccc(OC)cc2)c2ccc(Br)cc2)cc1
0.041 | 0.9 | COc1ccc(C(/C=C/c2ccc(C)cc2)=N\NC(=O)c2snnc2C)cc1
0.04 |  | Cc1ccc([C@H]2CC(c3cc(Br)ccc3O)=NN2C(=O)c2ccccc2)cc1
0.034 | 0.52 | Cc1ccc(/C=C/C(=N\NC(=O)c2cccs2)c2ccc(Cl)cc2)cc1
0.034 |  | COc1ccc(/C=C/C(=N\NC(=O)c2ccc(OC)cc2)c2ccc(Cl)cc2)cc1
0.012 | 0.75 | Cc1ccc([C@H]2CC(c3cc(Cl)ccc3O)=NN2C(=O)c2ccccc2)cc1
0.012 | 0.76 | Cc1ccc(/C=C/C(=N/NC(=O)c2snnc2C)c2ccc(Cl)cc2)cc1
0.012 | 1.05 | COc1ccc(/C=C/C(=N/NC(=O)c2snnc2C)c2ccc(Cl)cc2)cc1
0.01 | 0.99 | Cc1cccc(/C=C/C(=N/NC(=O)c2snnc2C)c2ccc(Cl)cc2)c1
0.01 | 1.48 | Cc1ccc(/C=C/C(=N/NC(=O)c2snnc2C)c2ccc(O)cc2)cc1
